Measurements published in ChEMBL document CHEMBL3137386, “DNDi T. cruzi fenarimol series dataset from which preclinical candidate EPL-BS1246 was identified (see also related datasets CHEMBL2448688 and CHEMBL3137440)”.
Converted amounts (≈) assume the structure as drawn. “And” between values parts separate entries of the source, which are not always exact repeats. Equal entries are not always repeated.

Assays:
[1] = DNDI: Lipophilicity (s.f. LogD) at pH 2; type: physicochemical; details: buffer
[2] = (§1) DNDI: Metabolism; type: ADME, 10090, Microsome; details: mouse, microsomes
[3] = DNDI: Lipophilicity (s.f. LogD water); type: physicochemical
[4] = DNDI: Lipophilicity (gLogD) at pH 3; type: physicochemical; details: buffer
[5] = target: T1, Cytochrome P450 3A4 (Homo sapiens, UniProt P08684); experiment: (§2) DNDI: CYP Inhibition; type: ADME
T1 sequence (P08684 whole entry): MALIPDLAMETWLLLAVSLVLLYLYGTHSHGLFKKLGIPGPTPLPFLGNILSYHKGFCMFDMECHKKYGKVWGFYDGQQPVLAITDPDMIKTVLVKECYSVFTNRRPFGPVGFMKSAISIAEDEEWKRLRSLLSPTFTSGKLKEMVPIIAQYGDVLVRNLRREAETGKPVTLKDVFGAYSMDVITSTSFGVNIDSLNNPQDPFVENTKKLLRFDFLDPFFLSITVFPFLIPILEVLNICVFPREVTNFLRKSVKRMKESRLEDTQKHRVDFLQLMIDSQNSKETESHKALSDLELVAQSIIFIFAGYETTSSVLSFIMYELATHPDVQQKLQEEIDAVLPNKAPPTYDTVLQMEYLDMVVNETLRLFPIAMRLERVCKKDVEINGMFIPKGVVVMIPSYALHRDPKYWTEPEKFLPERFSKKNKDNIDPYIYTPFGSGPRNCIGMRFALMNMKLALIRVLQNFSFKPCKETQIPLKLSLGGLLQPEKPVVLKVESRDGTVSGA

[6] = as §1; type: ADME, 10116, Microsome; details: rat, microsomes
[7] = (§3) DNDI: Solubility, 24 hour, FaSSIF, 37C; type: physicochemical; details: read-out: Equilibrium
[8] = DNDI: Protein binding in dog plasma; type: ADME, Canis lupus familiaris, 9615; details: read-out: % bound (converted)
[9] = DNDI: Protein binding in human plasma; type: ADME; details: read-out: % bound (converted)
[10] = DNDI: Lipophilicity (s.f. LogD) at pH 7.4; type: physicochemical; details: buffer
[11] = (§4) DNDI: Solubility, 24 hour, Isotonic phos buffer - pH 2; type: physicochemical; details: isotonic phosphate buffer, read-out: Equilibrium
[12] = DNDI: Solubility, 24 hour, FaSSIF buffer - pH 5.8, 37C; type: physicochemical; details: read-out: Equilibrium
[13] = tested on: Trypanosoma brucei rhodesiense; experiment: DNDI: HAT in vitro; type: functional, organism-based; details: ATCC 30027
[14] = target: T1, Cytochrome P450 3A4; experiment: as §2; type: ADME; remark: listed apart in the source
[15] = as §1; type: ADME, Canis lupus familiaris, 9615, Microsome; details: dog, microsomes
[16] = DNDI: Solubility, 24 hour, FaSSIF buffer - pH 6.5. 37C; type: physicochemical; details: read-out: Equilibrium
[17] = DNDI: Lipophilicity (gLogD) at pH 7.4; type: physicochemical; details: buffer
[18] = tested on: Trypanosoma cruzi; experiment: (§5) DNDI: Chagas in vitro; type: functional, organism-based, Tulahuen C4 (LacZ)
[19] = DNDI: Solubility, 24 hour, SGF - pH 1, 37C; type: physicochemical; details: read-out: Equilibrium
[20] = DNDI: Protein binding in rat plasma; type: ADME, 10116; details: read-out: % bound (converted)
[21] = DNDI: Protein binding in human liver microsomes; type: ADME; details: read-out: % bound (converted)
[22] = tested on: Trypanosoma cruzi; experiment: as §5; type: functional, Tulahuen C4 (LacZ)
[23] = DNDI: Protein binding in mouse plasma; type: ADME, 10090; details: read-out: % bound (converted)
[24] = DNDI: Lipophilicity (s.f. LogD) at pH 5; type: physicochemical; details: buffer
[25] = DNDI: Solubility in 0.01M HCl at pH 2 determined by nephelometry; type: physicochemical; details: 0.01 M HCl
[26] = (§6) DNDI: Cytotoxicity against L-6 rat myoblasts from skeletal muscle; type: toxicity, cell-based, Muscle tissue, L6; details: rat, L6 rat skeletal muscle myoblasts
[27] = tested on: L6; experiment: as §6; type: toxicity, cell-based, Muscle tissue; details: l6
[28] = DNDI: pKa; type: physicochemical
[29] = DNDI: Protein binding 10% serum RPMI; type: ADME; details: RPMI with 10% serum; read-out: % bound (converted)
[30] = as §3; type: physicochemical; details: read-out: Equilibrium; remark: listed apart in the source
[31] = target: T1, Cytochrome P450 3A4; experiment: as §2; type: ADME; remark: listed apart in the source
[32] = as §1; type: ADME, Microsome; details: human, microsomes
[33] = as §4; type: physicochemical; details: isotonic phosphate buffer, read-out: Equilibrium; remark: listed apart in the source

O=C(C(c1ccc(Cl)cc1)c1cccnc1)N1CCN(c2ccc(C(F)(F)F)cc2)CC1 (configuration not stated)
logD [1]: 2.71
half-life [2]: 0.5 h
microsomal CLint [2]: 59 µL/min/mg
hepatic extraction ratio ([2]; read-out: EH): 0.72
logD [3]: 5.44
chromatographic logD [4]: 4.1
IC50 [5]: 20000 nM
half-life [6]: 0.767 h
microsomal CLint [6]: 38 µL/min/mg
hepatic extraction ratio ([6]; read-out: EH): 0.55
solubility thermodynamic at 24 h [7]: 75.9 µg/mL (≈ 165 µM)
fraction unbound [8]: 0.012
fraction unbound [9]: 0.025
logD [10]: 5.54
solubility thermodynamic at 24 h [11]: < 1 µg/mL
solubility thermodynamic at 24 h [12]: < 1 µg/mL
IC50 [13]: > 10000 nM
IC50 [14]: 1200 nM
half-life [15]: 2.17 h
microsomal CLint [15]: 13 µL/min/mg
hepatic extraction ratio ([15]; read-out: EH): 0.38
solubility thermodynamic at 24 h [16]: < 1 µg/mL
chromatographic logD [17]: 4.5
IC50 [18]: 7 nM
IC50 ([18]; Trypanosoma cruzi, Tulahuen C4 (LacZ)): 10 nM
solubility thermodynamic at 24 h [19]: 1500 µg/mL (≈ 3260 µM)
fraction unbound [20]: 0.027
fraction unbound [21]: 0.023
IC90 [22]: 10 nM and 47.5 nM
fraction unbound [23]: 0.014
logD [24]: 5.47
solubility kinetic [25]: > 100 µg/mL
IC50 [26]: 37700 nM
IC50 [27]: 42400 nM
pKa [28]: 2.62
fraction unbound [29]: 0.076
solubility thermodynamic at 24 h [30]: 1.3 µg/mL (≈ 2.83 µM)
IC50 [31]: 7400 nM
half-life [32]: 1.42 h
microsomal CLint [32]: 20 µL/min/mg
hepatic extraction ratio ([32]; read-out: EH): 0.53
solubility thermodynamic at 24 h [33]: 127 µg/mL (≈ 276 µM)
